Measurements: ChEMBL document CHEMBL1138844, “Synthesis and biological evaluation of 1-aryl-4,5-dihydro-1H-pyrazolo[3,4-d]pyrimidin-4-one inhibitors of cyclin-dependent kinases” (J Med Chem, 2004)

target: Cyclin-dependent kinase 4/cyclin D1 (Homo sapiens, UniProt P11802); assay: Inhibition of Cyclin-dependent kinase 4-cyclin D1; assay type: protein-complex assay
Sequence (P11802 whole entry): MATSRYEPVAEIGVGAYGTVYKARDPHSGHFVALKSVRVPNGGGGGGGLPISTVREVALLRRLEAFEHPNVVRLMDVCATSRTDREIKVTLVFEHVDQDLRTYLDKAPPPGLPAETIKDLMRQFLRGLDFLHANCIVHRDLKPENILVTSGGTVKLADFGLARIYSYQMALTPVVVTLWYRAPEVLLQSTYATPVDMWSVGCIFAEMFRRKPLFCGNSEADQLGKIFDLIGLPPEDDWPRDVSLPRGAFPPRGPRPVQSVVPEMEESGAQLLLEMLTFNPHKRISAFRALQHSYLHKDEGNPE
Sequence (P24385 whole entry, further chain): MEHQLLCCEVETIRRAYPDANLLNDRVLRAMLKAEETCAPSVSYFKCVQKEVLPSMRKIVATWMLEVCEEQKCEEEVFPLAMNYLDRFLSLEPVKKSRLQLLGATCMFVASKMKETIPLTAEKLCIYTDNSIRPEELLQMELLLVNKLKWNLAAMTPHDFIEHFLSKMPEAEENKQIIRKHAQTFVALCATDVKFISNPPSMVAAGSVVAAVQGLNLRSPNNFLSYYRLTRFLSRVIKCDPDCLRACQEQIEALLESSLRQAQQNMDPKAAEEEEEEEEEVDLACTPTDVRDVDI

| Compound | IC50 [µM] |
| --- | --- |
| CSc1nn(-c2ccc(Cl)cc2Cl)c2nc(C)[nH]c(=O)c12 | 37 |
| CSc1nn(-c2cccc(Cl)c2Cl)c2nc(C)[nH]c(=O)c12 | 50 |
| CSc1nn(-c2ccc(C(C)C)cc2)c2nc(C)[nH]c(=O)c12 | > 160 |
| CSc1nn(-c2cc(C(F)(F)F)ccc2Cl)c2nc(C)[nH]c(=O)c12 | 15 |
| CSc1nn(-c2c(C)cc(C)cc2C)c2nc(C)[nH]c(=O)c12 | 37 |
| CSc1nn(C(C)(C)C)c2nc(C)[nH]c(=O)c12 | > 100 |
| CSc1nn(-c2ccc(Cl)cc2)c2nc(C)[nH]c(=O)c12 | > 160 |
| CSc1nn(-c2c(Cl)cc(Cl)cc2Cl)c2nc(CN(C)C(=O)OC(C)(C)C)[nH]c(=O)c12 | > 50 |
| CSc1nn(-c2ccccc2)c2nc(C)[nH]c(=O)c12 | > 180 |
| CSc1nn(-c2ccccc2Cl)c2nc(C)[nH]c(=O)c12 | 19 |
| CSc1nn(-c2c(Cl)cccc2Cl)c2nc(C)[nH]c(=O)c12 | 5.3 |
| CSc1nn(-c2ccc(Cl)cc2C)c2nc(C)[nH]c(=O)c12 | 74 |
| CSc1nn(CCO)c2nc(C)[nH]c(=O)c12 | > 210 |
| CSc1nn(-c2ccccn2)c2nc(C)[nH]c(=O)c12 | > 180 |
| CSc1nn(-c2c(Cl)cc(Cl)cc2C(F)(F)F)c2nc(C)[nH]c(=O)c12 | 29 |
| CSc1nn(-c2c(Cl)cc(C(F)(F)F)cc2Cl)c2nc(C)[nH]c(=O)c12 | 8 |
| CSc1nn(-c2ccc(C)cc2C)c2nc(C)[nH]c(=O)c12 | 48 |
| CSc1nn(Cc2ccccc2)c2nc(C)[nH]c(=O)c12 | > 150 |
| CSc1nn(-c2cccc(Cl)c2)c2nc(C)[nH]c(=O)c12 | > 160 |
| CNCc1nc(O)c2c(SC)nn(-c3c(Cl)cc(Cl)cc3Cl)c2n1 | > 57 |
| CSc1nn(-c2cc(Cl)ccc2Cl)c2nc(C)[nH]c(=O)c12 | 23 |
| CSc1nn(-c2cc(C)ccc2C)c2nc(C)[nH]c(=O)c12 | 25 |
| CSc1nn(-c2c(Cl)cc(Cl)cc2Cl)c2nc(C(F)(F)F)[nH]c(=O)c12 | > 116 |
| CSc1nn(-c2c(Cl)cc(Cl)cc2Cl)c2nc(-c3ccco3)[nH]c(=O)c12 | 36 |
| CCCCn1nc(SC)c2c(=O)[nH]c(C)nc21 | > 200 |
| CSc1nn(-c2c(Cl)cc(Cl)cc2Cl)c2nc(Cc3cccs3)[nH]c(=O)c12 | 20 |
| COc1ccccc1-n1nc(SC)c2c(=O)[nH]c(C)nc21 | > 83 |

Second part, the molecule after the results:

| IC50 [µM] | Compound |
| --- | --- |
| 7 | Cc1nc2c(c(CO)nn2-c2c(Cl)cc(Cl)cc2Cl)c(=O)[nH]1 |
| > 140 | CCc1nn(-c2c(Cl)cc(Cl)cc2Cl)c2nc(C)nc(N)c12 |
| > 48 | Cc1nc2c(c(Cc3ccccc3)nn2-c2c(Cl)cc(Cl)cc2Cl)c(=O)[nH]1 |
| 240 | COC(=O)c1nc2c(c(SC)nn2-c2c(Cl)cc(Cl)cc2Cl)c(=O)[nH]1 |
| > 120 | Cc1nc2c(c(-c3ccccc3)nn2-c2c(Cl)cc(Cl)cc2Cl)c(=O)[nH]1 |
| 3.1 | Cc1nc2c(c(C(F)(F)F)nn2-c2c(Cl)cc(Cl)cc2Cl)c(=O)[nH]1 |
| 12 | Cc1nc2c(cnn2-c2c(Cl)cc(Cl)cc2Cl)c(=O)[nH]1 |
| 9.1 | CCCc1nc2c(c(SC)nn2-c2c(Cl)cc(Cl)cc2Cl)c(=O)[nH]1 |
| 11 | CSc1nn(-c2c(C)cc(Cl)cc2Cl)c2nc(C)[nH]c(=O)c12 |
| > 6.5 | CCCCc1nn(-c2c(Cl)cc(Cl)cc2Cl)c2nc(C)[nH]c(=O)c12 |
| 10 | CSc1nn(-c2c(Cl)cc(Cl)cc2Cl)c2nc(C(C)C)[nH]c(=O)c12 |
| > 140 | Cc1nc2c(c(CCO)nn2-c2c(Cl)cc(Cl)cc2Cl)c(=O)[nH]1 |
| 6.5 | CCc1nn(-c2c(Cl)cc(Cl)cc2Cl)c2nc(CCSC)[nH]c(=O)c12 |
| 5.7 | CCCc1nn(-c2c(Cl)cc(Cl)cc2Cl)c2nc(C)[nH]c(=O)c12 |
| 27 | CSc1nn(-c2c(Cl)cc(Cl)cc2Cl)c2nc(C(C)O)[nH]c(=O)c12 (centres undefined) |
| 3.5 | Cc1nc2c(c(C)nn2-c2c(Cl)cc(Cl)cc2Cl)c(=O)[nH]1 |
| > 28 | Cc1nc2c(c(C#N)nn2-c2c(Cl)cc(Cl)cc2Cl)c(=O)[nH]1 |
